This note sets out measurements from patent publication US12655124B2, “Heterocyclic compounds as modulators of stimulator of interferon genes (STING)” (RYVU THERAPEUTICS S.A., priority 2019, dated 2026).

Where a name gives a salt, the structure may show the parent alone.

The test system of test [1] is interferon regulatory factor (IRF) pathway in THP-1 dual cells. Kind of test: THP-1 Dual reporter assay, IRF pathway (luciferase). The settings on record: Homo sapiens, THP1-Dual, 18 h stimulation, luminescence. The class given is cell-based. As for the experimental part:
(§1) THP-1 Dual Reporter Assay
(§2) Compounds of the present invention were tested for their activity using THP-1 dual cells (Invivogen, cat no. thpd-nfis) allowing for simultaneous study of NF-κB pathway and the interferon regulatory factor (IRF) pathway. THP-1 dual cells contain luciferase reporter gene under the control of an ISG54 (interferon-stimulated gene) minimal promoter in conjunction with five interferon-stimulated response elements and a secreted embryonic alkaline phosphatase reporter gene under the control an IFN (interferon)-β minimal promoter fused to five copies of the NF-κB consensus transcriptional response element with three copies of the c-Rel binding site. Following 18 h of stimulation with STING agonist, medium was collected and transferred onto fresh cell culture plate. To verify activity of the IRF pathway, luminescence activity was measured with standard laboratory plate reader immediately after addition 10 μl of the medium to 40 or 50 μl of luminescence reagent (Invivogen, cat. No. rep-qlc2). To verify activity of NF-κB pathway, 10 or 20 μl of the medium was mixed with 80 μl of a detection medium (Invivogen, cat. No. rep-qb2) and incubated for 1 or 2 hours at 37° C. in a humidified atmosphere containing 5% CO2. Next, absorbance at 630 or 655 nm was recorded using standard laboratory plate reader.
In general terms: A reporter such as luciferase makes a cellular process visible.

The test system of test [2] is NF-κB pathway in THP-1 dual cells. Kind of test: THP-1 Dual reporter assay, NF-κB pathway (SEAP). The class given is cell-based. The note with it: Homo sapiens, THP1-Dual, 18 h stimulation, absorbance at 630 or 655 nm, read-out: THP1 Dual EC50 (μM) NFkB. As to the method: as §1, §2
A further test has as its target human STING (Homo sapiens, UniProt Q86WV6). Kind of test: Fluorescence Thermal Shift assay (hSTING FTS binding assay).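 Also: STING preincubated with compound for 20 min in HEPES NaCl buffer pH 7.5.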 The settings on record: ΔTm, STING 0.1 mg/mL, SyproOrange, 25 to 99° C. As to the method:
Fluorescence Thermal Shift Assay Compounds of the present invention were tested for binding to human STING in Fluorescence Thermal Shift assay. […] Final STING concentration was 0.1 mg/mL. Thermal unfolding was performed in Real-Time PCR QuantStudio 6 Flex System (Applied Biosystems), from 25 to 99° C., with continuous ramp mode and ramp rate 0.033° C./s. The data were analyzed using Protein Thermal Shift Software (ThermoFisher).

Chain of human STING (Q86WV6 whole entry H232R): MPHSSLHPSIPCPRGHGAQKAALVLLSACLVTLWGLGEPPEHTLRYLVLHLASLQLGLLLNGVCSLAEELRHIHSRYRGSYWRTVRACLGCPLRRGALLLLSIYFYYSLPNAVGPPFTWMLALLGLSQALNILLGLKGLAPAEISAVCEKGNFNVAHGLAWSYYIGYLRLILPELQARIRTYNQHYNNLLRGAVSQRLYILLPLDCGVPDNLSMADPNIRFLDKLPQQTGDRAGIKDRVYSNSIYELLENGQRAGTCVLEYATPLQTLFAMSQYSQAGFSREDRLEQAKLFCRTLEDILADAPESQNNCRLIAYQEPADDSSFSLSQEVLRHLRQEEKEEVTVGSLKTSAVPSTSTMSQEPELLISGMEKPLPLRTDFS

A word on the EC50: it is the midpoint of the concentration-response curve. As for `Cc1ccc(N2CCC[C@H](N(Cc3ccnc(C)c3)Cc3cn(C)c4cc(N5CC[C@H](N)C(F)(F)C5)ccc4c3=O)C2)cn1` (single isomer, unassigned) [Example 51], the EC50 is at most 1 µM in test [1] and 1 to 10 µM in test [2]. The like results for `Cc1ccc(N2CCC[C@H](N(Cc3ccnc(C)c3)Cc3cn(C4CC4)c4nc(N)c(F)cc4c3=O)C2)cn1` [Example 36, 7-amino-1-cyclopropyl-6-fluoro-3-({[(3S)-1-(6-methylpyridin-3-yl)piperidin-3-yl][(2-methylpyridin-4-yl)methyl]amino}methyl)-1,4-dihydro-1,8-naphthyridin-4-one] were, in that order, at most 1 µM and at most 1 µM. On to `Cc1cc(CN(Cc2cn(C)c3ccccc3c2=O)[C@H]2CCCN(c3ccc(CCO)nc3)C2)ccn1` [Example 43, 3-({[(3S)-1-[6-(2-hydroxyethyl)pyridin-3-yl]piperidin-3-yl][(2-methylpyridin-4-yl)methyl]amino}methyl)-1-methyl-1,4-dihydroquinolin-4-one], for which the EC50 in test [1] and in test [2] was 1 to 10 µM each time. For `Cc1cc(CN(Cc2cn(C)c3ccccc3c2=O)[C@H]2CCCN(c3cncc(CO)c3)C2)ccn1` [Example 44, 3-({[(3S)-1-[5-(hydroxymethyl)pyridin-3-yl]piperidin-3-yl][(2-methylpyridin-4-yl)methyl]amino}methyl)-1-methyl-1,4-dihydroquinolin-4-one], the EC50 in test [1] and in test [2] was at least 10 µM each time. Turning to `Cc1ccc(N2CCC[C@H](N(Cc3ccnc(C)c3)Cc3cn(C4CC4)c4cc(-n5cc(C(N)=O)nn5)c(F)cc4c3=O)C2)cn1` [Example 60, 1-[1-Cyclopropyl-6-fluoro-3-({[(3S)-1-(6-methylpyridin-3-yl)piperidin-3-yl][(2-methylpyridin-4-yl)methyl]amino}methyl)-4-oxo-1,4-dihydroquinolin-7-yl]-1H-1,2,3-triazole-4-carboxamide], the EC50 in test [1] and in test [2] was at most 1 µM throughout. Take `Cc1ccc(N2CCC[C@H](N(Cc3ccnc(C)c3)Cc3cn(C4CC4)c4cc(-n5cc(CO)nn5)c(F)cc4c3=O)C2)cn1` [Example 61, 1-Cyclopropyl-6-fluoro-7-[4-(hydroxymethyl)-1H-1,2,3-triazol-1-yl]-3-({[(3S)-1-(6-methylpyridin-3-yl)piperidin-3-yl][(2-methylpyridin-4-yl)methyl]amino}methyl)-1,4-dihydroquinolin-4-one]: the EC50 in test [1] and in test [2] was at most 1 µM each time. On to `Cc1ccc(N2CCC[C@H](N(Cc3ccnc(C)c3)Cc3cn(C)c4c(OCCO)cccc4c3=O)C2)cn1` [Example 63, 8-(2-hydroxyethoxy)-1-methyl-3-({[(3S)-1-(6-methylpyridin-3-yl)piperidin-3-yl][(2-methylpyridin-4-yl)methyl]amino}methyl)-1,4-dihydroquinolin-4-one], for which the EC50 in test [1] and in test [2] was at most 1 µM throughout. With `COc1cc(CN(Cc2cn(C3CC3)c3cc(N4CC[C@@H](O)C4)c(F)cc3c2=O)[C@H]2CCCN(c3cccnc3)C2)ccn1` [Example 65, 1-cyclopropyl-6-fluoro-7-[(3R)-3-hydroxypyrrolidin-1-yl]-3-({[(2-methoxypyridin-4-yl)methyl][(3S)-1-(pyridin-3-yl)piperidin-3-yl]amino}methyl)-1,4-dihydroquinolin-4-one Hydrochloride], the EC50 in test [1] and in test [2] was at most 1 µM in each case. Turning to `Cc1ccc(N2CCC[C@H](N(Cc3ccnc(C)c3)Cc3cn(C4CC4)c4cc(N5CCC6NCCC6C5)c(F)cc4c3=O)C2)cn1` (stereo partly drawn) [Example 68, 1-cyclopropyl-6-fluoro-3-({[(3S)-1-(6-methylpyridin-3-yl)piperidin-3-yl][(2-methylpyridin-4-yl)methyl]amino}methyl)-7-{octahydro-1H-pyrrolo[3,2-c]pyridin-5-yl}-1,4-dihydroquinolin-4-one], the “hSTING FTS binding assay (ΔT ° C.)” value at human STING is given as “+++ (ΔTm≥20° C.)”. On to `Cc1ccc(N2C[C@@H](F)C[C@H](N(Cc3ccnc(C)c3)Cc3cn(C4CC4)c4cc(OCCO)c(F)cc4c3=O)C2)cn1` [Example 75, 1-cyclopropyl-6-fluoro-3-({[(3S,5S)-5-fluoro-1-(6-methylpyridin-3-yl)piperidin-3-yl][(2-methylpyridin-4-yl)methyl]amino}methyl)-7-(2-hydroxyethoxy)-1,4-dihydroquinolin-4-one], for which, at human STING, the “hSTING FTS binding assay (ΔT ° C.)” value is reported as “+++ (ΔTm≥20° C.)”.

As for `Cc1cc(CN(Cc2cn(C3CC3)c3cc(N4CC[C@@H](O)C4)c(F)cc3c2=O)[C@H]2CCCN(c3cccnc3)C2)ccn1` [Example 78, 1-cyclopropyl-6-fluoro-7-[(3R)-3-hydroxypyrrolidin-1-yl]-3-({[(2-methylpyridin-4-yl)methyl][(3S)-1-(pyridin-3-yl)piperidin-3-yl]amino}methyl)-1,4-dihydroquinolin-4-one], at human STING, the “hSTING FTS binding assay (ΔT ° C.)” value is on record as “+++ (ΔTm≥20° C.)”.

As to `Cc1ccc(N2CCC[C@H](N(Cc3ccnc(C)c3)Cc3cn(C4CC4)c4cc(CN)c(F)cc4c3=O)C2)cn1` [Example 80, 7-(aminomethyl)-1-cyclopropyl-6-fluoro-3-({[(3S)-1-(6-methylpyridin-3-yl)piperidin-3-yl][(2-methylpyridin-4-yl)methyl]amino}methyl)-1,4-dihydroquinolin-4-one], the EC50 in test [1] and in test [2] was at most 1 µM each time.

Take `Cc1cnc(N2C[C@@H](F)C[C@H](N(Cc3ccnc(C)c3)Cc3cn(C4CC4)c4cc(N5CCC[C@H](O)C5)c(F)cc4c3=O)C2)cn1` [Example 82, 1-cyclopropyl-6-fluoro-3-({[(3S,5S)-5-fluoro-1-(5-methylpyrazin-2-yl)piperidin-3-yl][(2-methylpyridin-4-yl)methyl]amino}methyl)-7-[(3S)-3-hydroxypiperidin-1-yl]-1,4-dihydroquinolin-4-one]: the “hSTING FTS binding assay (ΔT ° C.)” value on human STING was “++ (10<ΔTm<20° C.)”.

As to `Cc1cc(CN(Cc2cn(C3CC3)c3cc(OCCO)c(F)cc3c2=O)[C@H]2CCCN(c3cccnc3)C2)ccn1` [Example 84, 1-cyclopropyl-6-fluoro-7-(2-hydroxyethoxy)-3-({[(2-methylpyridin-4-yl)methyl][(3S)-1-(pyridin-3-yl)piperidin-3-yl]amino}methyl)-1,4-dihydroquinolin-4-one Hydrochloride], the EC50 in test [1] and in test [2] was at most 1 µM each time.

`Cc1cc(CN(Cc2cn(C3CC3)c3cc(N4CCC[C@H](O)C4)c(F)cc3c2=O)[C@H]2CCCN(c3cccnc3)C2)ccn1.Cl` [Example 86, 1-cyclopropyl-6-fluoro-7-[(3S)-3-hydroxypiperidin-1-yl]-3-({[(2-methylpyridin-4-yl)methyl][(3S)-1-(pyridin-3-yl)piperidin-3-yl]amino}methyl)-1,4-dihydroquinolin-4-one Hydrochloride]: the “hSTING FTS binding assay (ΔT ° C.)” value at human STING was “+++ (ΔTm≥20° C.)”. For the molecule `Cc1cc(CN(Cc2cn(C3CC3)c3cc(OCCO)c(F)cc3c2=O)[C@H]2CCCN(c3ccc(Cl)nc3)C2)ccn1` [Example 97, 3-({[(3S)-1-(6-chloropyridin-3-yl)piperidin-3-yl][(2-methylpyridin-4-yl)methyl]amino}methyl)-1-cyclopropyl-6-fluoro-7-(2-hydroxyethoxy)-1,4-dihydroquinolin-4-one Hydrochloride], the EC50 in test [1] and in test [2] was at most 1 µM throughout.
